Source: publication PMC2248166, “Quantitative peptide binding motifs for 19 human and mouse MHC class I molecules derived using positional scanning combinatorial peptide libraries” (Immunome Research, 2008)
Where a SMILES comes first, the peptide text is derived from it.

Target: HLA A*3001 (Homo sapiens, UniProt P04439, D140H/D185E/E176W/F33S/G80R/H175R/K168Q/R138E/R41S)
Assay: biochemical
Assay type: binding

HLA A*3001, sequence (P04439 25-365 limits assumed, stated change not applied): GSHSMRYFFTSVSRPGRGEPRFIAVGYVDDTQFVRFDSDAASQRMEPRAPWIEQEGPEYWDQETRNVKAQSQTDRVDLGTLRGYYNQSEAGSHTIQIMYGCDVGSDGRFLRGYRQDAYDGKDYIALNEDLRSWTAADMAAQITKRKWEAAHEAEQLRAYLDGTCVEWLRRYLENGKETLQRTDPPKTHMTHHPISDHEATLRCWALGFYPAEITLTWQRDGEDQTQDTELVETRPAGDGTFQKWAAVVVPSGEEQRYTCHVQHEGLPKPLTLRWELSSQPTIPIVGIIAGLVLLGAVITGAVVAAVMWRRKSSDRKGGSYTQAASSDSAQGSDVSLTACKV

Structure (SMILES)	IC50 [nM]
CC[C@H](C)[C@H](NC(=O)[C@@H](N)CCCCN)C(=O)N[C@@H](CCCCN)C(=O)N[C@@H](C)C(=O)NCC(=O)N1CCC[C@H]1C(=O)N[C@@H](CCCNC(=N)N)C(=O)N[C@@H](Cc1ccc(O)cc1)C(=O)N[C@H](C(=O)O)C(C)C [3102.0097] (H-KIKAGPRYV-OH)	6.9
CC[C@H](C)[C@H](N)C(=O)N[C@@H](CO)C(=O)N[C@@H](CCCNC(=N)N)C(=O)N[C@@H](Cc1ccccc1)C(=O)N[C@@H](C)C(=O)N[C@@H](CC(N)=O)C(=O)N[C@@H](CC(C)C)C(=O)N[C@H](C(=O)N[C@@H](CCCCN)C(=O)O)[C@@H](C)CC [3102.0098] (H-ISRFANLIK-OH)	13
CC[C@H](C)[C@H](NC(=O)[C@H](Cc1c[nH]cn1)NC(=O)[C@@H](NC(=O)[C@H](CC(N)=O)NC(=O)[C@H](CCCCN)NC(=O)[C@@H](NC(=O)[C@@H](N)CCCCN)C(C)C)C(C)C)C(=O)NCC(=O)NCC(=O)O [3102.0099] (H-KVKNVHIGG-OH)	0.34
CC[C@H](C)[C@H](NC(=O)[C@H](CCSC)NC(=O)[C@H](Cc1ccccc1)NC(=O)[C@H](CC(=O)O)NC(=O)[C@H](CC(N)=O)NC(=O)[C@H](CCCCN)NC(=O)[C@@H](NC(=O)[C@@H](N)Cc1c[nH]cn1)[C@@H](C)CC)C(=O)N[C@@H](CCCCN)C(=O)O [3102.0101] (H-HIKNDFMIK-OH)	1.6
CC(C)[C@H](NC(=O)[C@H](C)NC(=O)[C@H](Cc1ccccc1)NC(=O)[C@H](CO)NC(=O)[C@H](CS)NC(=O)[C@H](CCCNC(=N)N)NC(=O)[C@H](Cc1ccc(O)cc1)NC(=O)[C@@H](N)CCCNC(=N)N)C(=O)N[C@@H](C)C(=O)O [3102.0102] (H-RYRCSFAVA-OH)	0.0038
CC(C)C[C@H](NC(=O)[C@H](CO)NC(=O)[C@@H](N)CCCCN)C(=O)N[C@@H](Cc1ccc(O)cc1)C(=O)N[C@@H](CO)C(=O)N[C@@H](Cc1c[nH]cn1)C(=O)N[C@@H](CCC(N)=O)C(=O)N[C@@H](CC(C)C)C(=O)N[C@H](C(=O)O)C(C)C [3102.0103] (H-KSLYSHQLV-OH)	12
CC[C@H](C)[C@H](NC(=O)[C@@H]1CCCN1C(=O)[C@H](CC(C)C)NC(=O)[C@H](CCCNC(=N)N)NC(=O)[C@@H](NC(=O)[C@@H](N)CCSC)[C@@H](C)O)C(=O)N[C@@H](CC(C)C)C(=O)N[C@@H](CC(C)C)C(=O)N[C@@H](CC(C)C)C(=O)O [3102.0104] (H-MTRLPILLL-OH)	0.65
CC(C)C[C@H](NC(=O)[C@@H](N)CCCCN)C(=O)N[C@@H](CCCNC(=N)N)C(=O)N[C@@H](CS)C(=O)N[C@@H](CCCNC(=N)N)C(=O)N[C@@H](CC(N)=O)C(=O)N[C@H](C(=O)N[C@@H](CCC(=O)O)C(=O)N[C@@H](C)C(=O)O)[C@@H](C)O [3102.0105] (H-KLRCRNTEA-OH)	14
CC[C@H](C)[C@H](NC(=O)[C@@H](N)CCCNC(=N)N)C(=O)N[C@@H](CCCNC(=N)N)C(=O)N[C@@H](CCC(N)=O)C(=O)N[C@@H](CCC(N)=O)C(=O)N[C@@H](CC(C)C)C(=O)N1CCC[C@H]1C(=O)N[C@@H](CC(C)C)C(=O)N[C@@H](Cc1ccc(O)cc1)C(=O)O [3102.0107] (H-RIRQQLPLY-OH)	13
CC(C)C[C@H](NC(=O)[C@H](CC(N)=O)NC(=O)[C@H](CCC(N)=O)NC(=O)[C@H](CC(N)=O)NC(=O)[C@H](CO)NC(=O)[C@H](CC(C)C)NC(=O)[C@H](Cc1c[nH]cn1)NC(=O)[C@@H](NC(=O)[C@@H](N)Cc1c[nH]cn1)[C@@H](C)O)C(=O)O [3102.0108] (H-HTHLSNQNL-OH)	5.8
CC[C@H](C)[C@H](NC(=O)[C@H](CC(C)C)NC(=O)[C@H](CCCNC(=N)N)NC(=O)[C@H](CCC(N)=O)NC(=O)[C@H](CCCNC(=N)N)NC(=O)[C@H](Cc1ccc(O)cc1)NC(=O)[C@@H](N)CCCNC(=N)N)C(=O)N[C@@H](CO)C(=O)N[C@@H](CC(C)C)C(=O)O [3102.0110] (H-RYRQRLISL-OH)	5.2
CC[C@H](C)[C@H](NC(=O)[C@H](Cc1ccc(O)cc1)NC(=O)[C@H](CO)NC(=O)[C@H](CC(C)C)NC(=O)[C@H](Cc1ccccc1)NC(=O)[C@H](Cc1c[nH]cn1)NC(=O)[C@H](CCCNC(=N)N)NC(=O)[C@@H](NC(=O)[C@@H](N)CCCNC(=N)N)[C@@H](C)O)C(=O)O [3102.0111] (H-RTRHFLSYI-OH)	0.24
